# Measurements taken from patent publication EP4389111A1, “METHOD OF PREPARATION OF C[…] […] AND C[…] […]” (Aero-Bw K. Domagala Sp. Jawna, priority 2022, dated 2024).
# “And” between values parts separate entries of the source, which are not always exact repeats. Identical values can stand only once.
# System: Salmonella typhimurium TA98
# Test: Ames test, strain TA98 (reading frame shift)
# Type: cell-based
# Conditions: positive control at 2 µg/mL
# Description: The test allows the identification of substances that cause mutations such as reading frame shifts or base pair substitutions. The test uses modified strains of Salmonella typhimurium bacteria carrying mutations in the operon of the gene encoding the amino acid histidine.
# The aim of the study was to assess the mutagenic potential of three extracts obtained from stem cells using two strains of Salmonella typhimurium carrying two types of mutations: TA 98—reading frame shift and TA 100—base pair substitution.
# The experimental procedure was carried out basing on the manufacturer's experimental protocol (Xenometrix).
structure (smiles),measurement,value
"O=[N+]([O-])c1ccc2c(c1)Cc1ccccc1-2 [Extract 2-NF, 2-nitrofluorene]",MOI (Multiplicity of induction compared to baseline),6.9 and 5.6
